# Assay results as given in patent US20120196858A1, “METHOD OF PROMOTING APOPTOSIS AND INHIBITING METASTASIS” (Poniard Pharmaceuticals ,Inc., priority 2009, published 2012).
# Columns and labels:
# MDA-MB-231 tumors = test: Orthotopic MDA-MB-231 breast carcinoma model; format: in vivo, NOD/SCID mice; settings: 0.5 mg/ml ad libitum
# Protocol: Orthotopic breast cancer models: One million 4T1 or MDA-MB-231 cells in 10 μl PBS were injected into the T4 mammary fat pad of 8-10 week old mice using a Hamilton syringe. […] Tumors were measured every 3-4 days with digital vernier calipers and tumor volume (mm^3) was calculated using the formula: V=axb^2/2 (a=length, mm; b=width, m) Body weight was measured weekly to assess toxicity. Lungs, spleen, and primary tumors were surgically removed and weighed. Tumors sections were homogenized in protein lysis buffer for immunoblotting or placed in Optimal Cutting Temperature (OCT) compound (Tissue Tek), frozen in liquid nitrogen, thin sectioned (7 μM) using a cryostat (Leica 3050S), and mounted onto glass slides.
# Metastatic tumor burden (number of metastatic lesion or mean pixel volume) was determined and groups (Negligible, Moderate, and High) were separated based upon numbers distribution. After imaging, lungs were fixed in Bouin's solution (Sigma), paraffin embedded, sectioned, and stained with hematoxylin and eosin (H&E) for histological evaluation. Images were acquired using a differential interference contrast-equipped Olympus IX81 inverted microscope and an Olympus DP71 digital color camera using Slidebook (v5.0) software. For MDA-MB-231 tumor metastasis studies, lungs were inflated by intratracheal injection of a 1:1 solution of OCT in sterile water using a 25 gauge needle. Lungs were resected, embedded in OCT, and frozen in liquid nitrogen.
# Solubility in water = format: physicochemical; settings: HCl salt
# Description: 10, 2008, and published as WO 2008/115369.
# c-Src (pY416 Src) = biological target: T1, c-Src (pY416 Src) (Mus musculus, UniProt P05480); test: Phospho-specific immunoblotting of Src pY416 in 4T1 cells; format: cell-based, murine
# T1 construct: endogenous in cells; host or cells: 4T1 murine mammary carcinoma cells
# [1] = test system: p130Cas tyrosine phosphorylation (pY249, pY410); test: Phospho-specific immunoblotting of p130Cas in 4T1 cells; format: cell-based, murine
# Description: (§1) Immunoblotting: Protein extracts of cells were made using lysis buffer containing 1% Triton X-100, 1% sodium deoxycholate, and 0.1% SDS and were separated by 4-12% SDS-PAGE (sodium dodecyl sulfate polyacrylamide gel electrophoresis) and sequential immunoblotting performed as described in Mitra S K, Lim S T, Chi A, Schlaepfer D D. Intrinsic focal adhesion kinase activity controls orthotopic breast carcinoma metastasis via the regulation of urokinase plasminogen activator expression in a syngeneic tumor model. Oncogene 2006; 25:4429-40. Relative expression levels and phospho-specific antibody reactivity were measured by densitometry analyses of blots using Image J (version 1.42q). Inhibition of FAK and p130Cas tyrosine phosphorylation was quantified by calculating the ratio of pY397 FAK protein to total FAK. Similar analyses were performed for p130Cas using pY410 p130Cas and total p130Cas blot data.
# [2] = biological target: T2, ACK1 (activated Cdc42-associated tyrosine kinase 1) (Homo sapiens, UniProt Q07912); test: Millipore KinaseProfiler selectivity screen; format: biochemical
# T2 construct: purchased Millipore (KinaseProfiler service)
# T2 sequence (Q07912 whole entry): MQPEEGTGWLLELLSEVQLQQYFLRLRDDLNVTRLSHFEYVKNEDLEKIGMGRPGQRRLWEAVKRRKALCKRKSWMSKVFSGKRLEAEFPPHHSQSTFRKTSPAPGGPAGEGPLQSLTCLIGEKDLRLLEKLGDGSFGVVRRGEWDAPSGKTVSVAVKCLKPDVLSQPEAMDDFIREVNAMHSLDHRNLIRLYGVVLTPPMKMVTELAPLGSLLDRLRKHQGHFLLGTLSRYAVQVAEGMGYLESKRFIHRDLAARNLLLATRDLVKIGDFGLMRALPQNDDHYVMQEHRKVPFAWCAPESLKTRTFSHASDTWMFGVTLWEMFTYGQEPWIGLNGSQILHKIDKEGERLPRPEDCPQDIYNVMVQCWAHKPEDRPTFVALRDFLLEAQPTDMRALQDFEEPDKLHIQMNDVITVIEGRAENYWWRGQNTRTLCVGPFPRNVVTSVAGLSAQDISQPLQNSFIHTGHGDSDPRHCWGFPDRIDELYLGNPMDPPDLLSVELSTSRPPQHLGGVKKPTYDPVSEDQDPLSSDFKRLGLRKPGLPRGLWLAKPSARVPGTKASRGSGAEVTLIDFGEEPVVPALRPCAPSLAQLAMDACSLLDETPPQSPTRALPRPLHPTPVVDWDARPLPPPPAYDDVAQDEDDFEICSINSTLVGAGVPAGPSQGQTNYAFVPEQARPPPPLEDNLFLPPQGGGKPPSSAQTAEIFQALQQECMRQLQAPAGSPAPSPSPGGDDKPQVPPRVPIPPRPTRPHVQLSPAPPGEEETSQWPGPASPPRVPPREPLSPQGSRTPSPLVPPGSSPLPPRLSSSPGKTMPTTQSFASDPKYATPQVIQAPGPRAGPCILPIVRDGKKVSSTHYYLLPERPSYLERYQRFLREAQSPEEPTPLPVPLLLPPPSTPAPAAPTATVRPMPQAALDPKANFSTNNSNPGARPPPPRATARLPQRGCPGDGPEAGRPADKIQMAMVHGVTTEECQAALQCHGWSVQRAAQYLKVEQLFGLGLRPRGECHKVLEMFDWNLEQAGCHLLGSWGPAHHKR
# Protocol: (§2) Baculovirus FAK catalytic domain and in vitro kinase assays: The FAK catalytic domain region (411-686) was generated by polymerase chain reaction using the primers 5′-[…]-3′ 5′-[…]-3′, cloned into pGEX4T as a fusion with GST, and moved into the pAcG2T baculovirus expression vector (Pharmingen, Baculogold). Virus clones were identified by plaque assays and amplified. For protein expression, SF9 cells were transduced at a multiplicity of infection of 2-5 pfu/cell and cultured at 27° C. for 48 h. Glutathione agarose affinity chromatography were used to purify GST-FAK (411-686) followed by size fractionation using hiload 16/60 Superdex chromatography (GE Healthcare). Protein was concentrated and stored frozen in 50 mM Tris pH 8.0, 150 mM NaCl, 1 mM Na orthovanadate, 0.5 mM EDTA, 0.5 mM EGTA, 0.1% β-mercaptoethanol, and 20% glycerol. Purity was estimated at >90% by SDS-PAGE. GST-FAK in vitro kinase activity was measured and compared to His-tagged FAK 411-686 (Millipore) using the K-LISA screening kit (Calbiochem) and poly(Glu:Tyr) (4:1) copolymer (P0275, Sigma) as a substrate immobilized on microtiter plates. […] Serial diluted compounds at ½-Log concentrations (starting at 1 μM) were tested in triplicate. Substrate phosphorylation was measured using horseradish peroxidase-conjugated anti-pTyr antibodies (PY20, Santa Cruz Biotechnology) with spetrophotometic color quantitation. IC50 values were determined using the Hill-Slope Model. Kinase selectivity profiling was performed by using the KinaseProfiler service (Millipore).
# [3] = biological target: T3, CDK2 (cyclin-dependent kinase 2)/cyclin A (Homo sapiens, UniProt P24941); test: Millipore KinaseProfiler selectivity screen; format: biochemical
# T3 construct: purchased Millipore (KinaseProfiler service)
# Protocol: as §2
# Aurora-A = biological target: T4, Aurora-A (Homo sapiens, UniProt O14965); test: Millipore KinaseProfiler selectivity screen; format: biochemical; settings: read-out: kinase inhibition
# T4 construct: purchased Millipore (KinaseProfiler service)
# T4 sequence (O14965 whole entry): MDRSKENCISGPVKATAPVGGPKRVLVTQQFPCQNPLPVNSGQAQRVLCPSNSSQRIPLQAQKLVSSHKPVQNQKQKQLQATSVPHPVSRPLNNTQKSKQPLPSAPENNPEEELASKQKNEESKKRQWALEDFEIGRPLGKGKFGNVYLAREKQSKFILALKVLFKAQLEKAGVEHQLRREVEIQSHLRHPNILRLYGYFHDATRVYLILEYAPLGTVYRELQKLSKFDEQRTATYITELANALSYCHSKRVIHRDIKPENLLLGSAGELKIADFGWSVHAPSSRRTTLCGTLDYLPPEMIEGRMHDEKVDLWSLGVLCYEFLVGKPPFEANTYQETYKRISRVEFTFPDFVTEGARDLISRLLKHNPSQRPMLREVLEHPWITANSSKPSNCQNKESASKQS
# Protocol: as §2
# [4] = biological target: T5, Lck (lymphocyte-specific protein tyrosine kinase) (Homo sapiens, UniProt P06239); test: Millipore KinaseProfiler selectivity screen; format: biochemical
# T5 construct: purchased Millipore (KinaseProfiler service)
# T5 sequence (P06239 whole entry): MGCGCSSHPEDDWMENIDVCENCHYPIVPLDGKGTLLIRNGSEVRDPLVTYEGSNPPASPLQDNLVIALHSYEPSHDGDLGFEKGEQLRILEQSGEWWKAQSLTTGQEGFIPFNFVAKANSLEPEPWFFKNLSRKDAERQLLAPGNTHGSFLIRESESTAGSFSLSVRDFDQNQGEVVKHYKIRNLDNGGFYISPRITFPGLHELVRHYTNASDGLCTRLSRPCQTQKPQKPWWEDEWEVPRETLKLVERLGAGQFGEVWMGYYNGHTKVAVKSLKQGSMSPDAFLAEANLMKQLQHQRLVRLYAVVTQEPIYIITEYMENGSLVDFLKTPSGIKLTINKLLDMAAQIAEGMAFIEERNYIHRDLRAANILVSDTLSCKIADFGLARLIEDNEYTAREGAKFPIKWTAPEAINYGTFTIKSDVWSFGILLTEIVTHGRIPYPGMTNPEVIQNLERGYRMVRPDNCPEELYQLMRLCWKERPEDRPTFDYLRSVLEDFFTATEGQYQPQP
# Protocol: as §2
# FAK = biological target: T6, FAK (Homo sapiens, UniProt Q05397); test: Millipore KinaseProfiler selectivity screen; format: biochemical
# T6 construct: purchased Millipore (KinaseProfiler service)
# T6 sequence (Q05397 whole entry): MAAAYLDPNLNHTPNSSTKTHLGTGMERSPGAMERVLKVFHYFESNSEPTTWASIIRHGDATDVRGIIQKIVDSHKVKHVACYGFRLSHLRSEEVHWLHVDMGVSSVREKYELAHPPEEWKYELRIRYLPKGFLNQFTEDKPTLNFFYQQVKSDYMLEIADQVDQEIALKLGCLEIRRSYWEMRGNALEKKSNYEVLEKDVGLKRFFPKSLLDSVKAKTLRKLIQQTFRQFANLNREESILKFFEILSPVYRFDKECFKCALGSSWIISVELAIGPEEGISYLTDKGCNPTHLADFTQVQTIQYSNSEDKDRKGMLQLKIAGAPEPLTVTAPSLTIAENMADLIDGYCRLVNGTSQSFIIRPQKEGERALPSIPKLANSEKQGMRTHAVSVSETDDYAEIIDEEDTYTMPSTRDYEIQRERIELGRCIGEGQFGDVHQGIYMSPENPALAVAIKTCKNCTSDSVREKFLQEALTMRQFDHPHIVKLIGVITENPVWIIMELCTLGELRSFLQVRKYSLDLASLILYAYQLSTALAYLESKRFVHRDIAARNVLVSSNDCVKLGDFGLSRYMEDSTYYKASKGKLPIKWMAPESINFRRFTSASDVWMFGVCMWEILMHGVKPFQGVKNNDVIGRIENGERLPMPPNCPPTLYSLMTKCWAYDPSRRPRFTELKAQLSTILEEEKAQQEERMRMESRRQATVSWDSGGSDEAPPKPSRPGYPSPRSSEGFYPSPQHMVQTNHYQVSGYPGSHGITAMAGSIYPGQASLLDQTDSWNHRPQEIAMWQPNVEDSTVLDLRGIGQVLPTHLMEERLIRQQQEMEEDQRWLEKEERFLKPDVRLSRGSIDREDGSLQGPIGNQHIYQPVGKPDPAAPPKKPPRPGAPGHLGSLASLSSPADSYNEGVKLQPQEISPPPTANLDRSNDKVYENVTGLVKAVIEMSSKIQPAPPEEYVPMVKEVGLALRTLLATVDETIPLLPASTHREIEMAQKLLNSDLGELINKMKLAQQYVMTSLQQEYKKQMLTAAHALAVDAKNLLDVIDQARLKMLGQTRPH
# Protocol: as §2
# insulin receptor (IR) = biological target: T7, insulin receptor (IR) (Homo sapiens, UniProt P06213); test: Millipore KinaseProfiler selectivity screen; format: biochemical; settings: read-out: kinase inhibition
# T7 construct: purchased Millipore (KinaseProfiler service)
# Protocol: as §2
# [5] = biological target: T8, TrkA (tropomyosin-related kinase A) (Homo sapiens, UniProt P04629); test: Millipore KinaseProfiler selectivity screen; format: biochemical
# T8 construct: purchased Millipore (KinaseProfiler service)
# Protocol: as §2
# [6] = biological target: T9, Flt3 (FMS-like tyrosine kinase 3) (Homo sapiens, UniProt P36888); test: Millipore KinaseProfiler selectivity screen; format: biochemical
# T9 construct: purchased Millipore (KinaseProfiler service)
# T9 sequence (P36888 27-993): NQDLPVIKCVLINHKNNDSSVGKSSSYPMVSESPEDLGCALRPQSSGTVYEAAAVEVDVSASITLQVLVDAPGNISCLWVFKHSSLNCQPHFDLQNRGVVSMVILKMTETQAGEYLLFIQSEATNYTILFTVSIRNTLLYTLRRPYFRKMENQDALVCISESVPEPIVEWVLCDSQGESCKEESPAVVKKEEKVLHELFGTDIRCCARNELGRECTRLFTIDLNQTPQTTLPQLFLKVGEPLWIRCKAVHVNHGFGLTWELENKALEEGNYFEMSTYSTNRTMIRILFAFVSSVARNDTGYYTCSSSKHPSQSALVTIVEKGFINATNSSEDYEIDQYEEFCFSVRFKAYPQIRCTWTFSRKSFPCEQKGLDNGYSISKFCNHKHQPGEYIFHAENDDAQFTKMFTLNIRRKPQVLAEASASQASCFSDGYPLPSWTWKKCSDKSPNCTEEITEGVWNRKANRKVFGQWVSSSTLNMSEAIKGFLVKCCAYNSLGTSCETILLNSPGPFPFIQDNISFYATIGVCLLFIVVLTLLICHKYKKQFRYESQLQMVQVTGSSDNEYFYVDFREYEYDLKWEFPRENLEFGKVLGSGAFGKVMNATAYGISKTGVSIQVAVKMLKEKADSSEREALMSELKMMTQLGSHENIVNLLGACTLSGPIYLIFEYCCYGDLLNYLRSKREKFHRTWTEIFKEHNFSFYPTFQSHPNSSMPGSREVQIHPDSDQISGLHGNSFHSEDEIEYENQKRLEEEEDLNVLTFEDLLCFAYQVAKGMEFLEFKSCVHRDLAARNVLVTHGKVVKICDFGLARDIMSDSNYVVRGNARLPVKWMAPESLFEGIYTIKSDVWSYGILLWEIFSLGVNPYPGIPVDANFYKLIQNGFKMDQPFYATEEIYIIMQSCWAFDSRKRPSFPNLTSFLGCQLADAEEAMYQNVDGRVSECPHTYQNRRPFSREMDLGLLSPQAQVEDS
# Protocol: as §2
# 4T1 cells = test: Cell adhesion to fibronectin; format: cell-based, murine
# MDA-MB-231 cells = test: Experimental metastasis assay (tail vein injection); format: in vivo, nude mice; settings: 150 mg/kg p.o. pre-administered; 1 and 6 h
# Protocol: To determine experimental metastasis burden, lungs were removed 1 and 6 h post cell injection, rinsed in PBS, and dorsal plus ventral fluorescent images acquired using OV100 imaging. A common threshold for mCherry fluorescence was set for all images and the total fluorescent lung area was calculated using Image J.
# [7] = test system: ID8 ovarian carcinoma cells; test: ID8 suspended spheroid cell growth; format: cell-based, murine
# Protocol: Anchorage-dependent, spheroid, and soft agar cell growth assays: Cells (2×10^5) were plated per 35 mm well under adherent (tissue culture-treated) and non-adherent conditions (poly-HEMA-coated) in 6-well plates (Costar) in growth media. […] For spheroid area determination, cells were imaged after 72 h in phase contrast using an Olympus IX51 microscope. Area was calculated using Image J software (version 1.43). For soft agar assays, 48-well plates were coated with a 1:4 mix of 2% agar (EM Science) in 0.2 ml growth media (bottom layer). 5×10^4 cells were plated per well (in triplicate) in a mixture of 0.3% agar in 0.2 ml growth media (top layer). […] After 10 days, colonies were imaged in phase contrast, enumerated by counting 9 fields (3 fields per well), and total area determined using Image J. For all analyses, experimental points were performed in triplicate and were experiments were repeated at least two times.
# [8] = biological target: T10, FAK Tyr-397 phosphorylation (Mus musculus, UniProt P34152); test: Anti-phospho-specific immunoblotting of FAK pY397 in 4T1 cells; format: cell-based, murine
# T10 construct: endogenous in cells; host or cells: 4T1 murine mammary carcinoma cells
# T10 sequence (P34152 whole entry): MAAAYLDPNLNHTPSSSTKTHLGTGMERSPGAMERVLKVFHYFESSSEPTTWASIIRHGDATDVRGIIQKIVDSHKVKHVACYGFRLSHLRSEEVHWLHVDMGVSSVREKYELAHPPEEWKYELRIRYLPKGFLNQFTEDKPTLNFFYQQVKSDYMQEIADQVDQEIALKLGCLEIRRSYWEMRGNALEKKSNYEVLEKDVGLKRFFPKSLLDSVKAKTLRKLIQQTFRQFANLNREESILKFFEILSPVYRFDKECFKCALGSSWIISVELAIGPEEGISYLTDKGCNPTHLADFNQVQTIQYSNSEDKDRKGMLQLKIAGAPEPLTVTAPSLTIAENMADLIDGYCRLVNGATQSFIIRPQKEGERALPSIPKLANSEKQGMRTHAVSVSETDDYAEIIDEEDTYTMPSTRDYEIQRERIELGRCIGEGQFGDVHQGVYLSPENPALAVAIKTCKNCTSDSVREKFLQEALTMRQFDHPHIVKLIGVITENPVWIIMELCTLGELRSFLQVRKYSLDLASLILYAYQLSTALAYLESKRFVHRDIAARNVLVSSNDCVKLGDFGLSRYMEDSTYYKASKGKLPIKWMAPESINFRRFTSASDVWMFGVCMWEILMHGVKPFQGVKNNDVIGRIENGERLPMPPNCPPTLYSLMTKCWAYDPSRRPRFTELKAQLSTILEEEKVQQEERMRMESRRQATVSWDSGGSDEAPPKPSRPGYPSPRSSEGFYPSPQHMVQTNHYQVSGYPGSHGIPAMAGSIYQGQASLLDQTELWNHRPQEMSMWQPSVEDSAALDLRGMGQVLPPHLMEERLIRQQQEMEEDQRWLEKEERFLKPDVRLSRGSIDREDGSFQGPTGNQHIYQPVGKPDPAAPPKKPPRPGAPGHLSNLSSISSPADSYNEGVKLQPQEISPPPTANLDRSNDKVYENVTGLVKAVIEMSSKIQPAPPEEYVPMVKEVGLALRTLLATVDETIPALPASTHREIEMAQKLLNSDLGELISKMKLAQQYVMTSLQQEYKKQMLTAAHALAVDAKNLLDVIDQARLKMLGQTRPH
# Description: as §1
# [9] = adherent 4T1 cells, 1 h, PND-1186 to 1 μM
compound,measurement,setting,value
CNC(=O)c1ccccc1Nc1cc(Nc2ccc(N3CCOCC3)cc2OC)ncc1C(F)(F)F [PND-1186],FAK pY397 phosphorylation in MDA-MB-231 tumors,MDA-MB-231 tumors,significantly reduce FAK pY397 phosphorylation
same,reduction of number of metastatic lung lesions,MDA-MB-231 tumors,> 3.5 fold
same,tumor size by Day 27 (caliper),MDA-MB-231 tumors; 15 days of administration,control tumors were significantly larger
same,decrease in final tumor weight,MDA-MB-231 tumors; Day 70,> 5 fold
same,solubility,Solubility in water,22 mg/mL
same,Src pY416 and Src expression levels in spheroids,c-Src (pY416 Src); PND-1186-treated 3D spheroids,no change
same,Src pY416 phosphorylation,c-Src (pY416 Src); [9],did not affect c-Src activity
same,p130Cas pY249 phosphorylation in 4T1 spheroids,"[1]; 0.1 μM, 3D spheroids",potently inhibited
same,p130Cas pY410 phosphorylation in 4T1 spheroids,"[1]; 0.1 μM, 3D spheroids",potently inhibited
same,p130Cas pY249 phosphorylation,[1]; [9],did not affect
same,inhibition at 1 µM,[2],> 50%
same,inhibition at 1 µM,[3],> 50%
same,inhibition at 1 µM,Aurora-A,> 50%
same,inhibition at 1 µM,[4],> 50%
same,kinase inhibition specificity,FAK; 0.1 μM PND-1186,displayed specificity for FAK as well as Flt3
same,remaining kinase activity,FAK; 1 μM PND-1186,negligible activity
same,inhibition at 1 µM,insulin receptor (IR),> 50%
same,inhibition at 1 µM,[5],> 50%
same,kinase inhibition specificity,[6]; 0.1 μM PND-1186,displayed specificity for FAK as well as Flt3
same,remaining kinase activity,[6]; 1 μM PND-1186,negligible activity
same,effect on 4T1 cell adhesion to fibronectin,4T1 cells,did not affect 4T1 cell adhesion to fibronectin
same,accumulation of tumor cells in the lungs,MDA-MB-231 cells,significantly inhibited the accumulation of tumor cells in the lungs
same,ID8 cell number,"[7]; 0.1, 0.4, and 1.0 μM, 72 h, suspended spheroids",significantly inhibited ID8 cell number
same,viable ID8 cells,[7]; after 15 days,dramatic reduction in viable cells
same,FAK pY397 phosphorylation in 4T1 spheroids,"[8]; 0.1 μM, 3D spheroids",potently inhibited
same,"FAK pY397 phosphorylation, adherent and suspended cells","[8]; 0.1 μM, 24 h",sufficient to inhibit FAK pY397 phosphorylation
same,maximal reduction of FAK pY397 phosphorylation,"[8]; 4T1 cells, 0.1 to 1.0 μM, 1 h",~80%
